In PMC13242511, “Disrupting Notch signalling by a small molecule inhibiting dihydroorotate dehydrogenase activity” (Scientific Reports, 2026):
Where “and” joins values, the source holds several entries; their conditions need not be identical. Identical values can stand only once. Entries after “also recorded” stand apart in the source; their conditions may differ. Like-named read-outs stand apart in the source and are kept apart here.

Experiments:
Notch signalling = assay: Notch reporter assay (12xCSL firefly luciferase / renilla luciferase, HEK293T Notch1ΔE reporter cell line clone #A1-11); assay type: cell-based; set-up: AUC Notch: scale not given here; conditions: for Bottom (Emax): Emax indicated independent from assay constraints, in % (unit assumed); for AUC Notch: area under the 14-point dose-response curve; for reporter signal in % of DMSO: inhibitor controls, Supplemental Fig. 2A; for Notch assay: overview in comparison to compound C, Supplemental Fig. 9
Description: To identify novel Notch inhibitors in an unbiased manner, we generated a novel Notch reporter construct, which records the level of Notch signalling immediately downstream of receptor activation rather than further downstream in the signalling cascade, for example at the level of Hes and Hey proteins (Fig. 1B). […] The reporter construct carries piggy-bac sequences at both ends of the promoter-reporter cassette as well as cSH4 insulator elements to reduce transcriptional noise[21] and was transfected into HEK293T cells. To achieve a robust level of Notch receptor activity in the HEK293T reporter cell line and to confine the search for inhibitors to compounds affecting the receptor function and eliminating the need for ligand activation, a truncated ligand-independent version of the Notch1 receptor, mimicking an S2-cleaved Notch1 receptor (Notch1ΔE) and spontaneously activated by S3-cleavage[22] (Fig. 1C) was introduced into the cell line carrying the reporter construct (Fig. 1D). In addition, an HSV-TK-renilla luciferase plasmid was introduced into the cell line as an internal control for normalisation of the reporter expression (Fig. 1D).
A de novo Notch reporter construct, composed of six dimeric CSL binding sites linked to a basic b-globin promoter and followed by a firefly luciferase gene and a PEST degradation domain was synthesised (GeneArt). The construct was stably introduced into HEK293T cells, and zeocin (0.1 mg/ml) or Puromycin (0.05 mg/ml (ThermoFisher, cat #R25001, #A1113803) were used as selection markers. A clonal cell line (clone #A1) with robust renilla expression and enhanced firefly luciferase expression upon transient transfection of Notch1 ICD or Notch1ΔE constructs was selected, and a UB6 promoter-Notch1DE construct was stably introduced into this cell line using Blasticidin (0.1 mg/ml; ThermoFisher, cat #A1113903) as a selection marker. Stable cell lines were generated by serial dilution and only clonal colonies were selected for further evaluation. To measure luciferase reporter activity, cells were washed in cold PBS, detached, and collected in pre-warmed cell culture medium and centrifugated for five min at 200xg. The cell pellet was resuspended in medium, cells were counted, and 4,000 cells were seeded in each well of a white 384 well plate (Corning #3670) in 20 µl medium containing either DMSO or the GSI DAPT (N-[N-(3,5-Difluorophenacetyl)-L-alanyl]-S-phenylglycine t-butyl ester, Sigma-Aldrich, cat #565784-M) and incubated for 24 h. The efficacy of the reporter gene system was determined by monitoring the level of luciferase activation in the absence or presence of different amounts of DAPT in several cell clones. Luciferase activity was assessed using the dual-GLO luciferase detection kit from Promega (cat # E2920), following the manufacturer’s instructions. A minimum of two technical replicates were measured per clone using a SpectraMaxi3 plate reader (Molecular Devices). Reporter activity of different clones and in response to DAPT was assessed by normalising firefly (Notch activity) to renilla luciferase signals. Normalised signals of individual clones cultivated in DMSO were then compared to corresponding signals generated with DAPT-treated cells. The cell clone with the strongest signal to control ratio (DMSO to DAPT) was then selected for further exploration (clone #A1-11).
37,966 compounds were spotted by the compound center at SciLifeLab (https://www.scilifelab.se/) on a total of 120 plates (Greiner #781080) at a fixed concentration of 10 µM and the screening process spanned five consecutive sessions. The layout of each plate contained one column for DMSO and one for DAPT controls to determine the quality and reliability of the data. DAPT controls were spotted at 10 µM and DMSO was spotted in an equimolar volume. In addition, plates spotted with only DMSO were utilized to investigate the impact of plate effects before and after each session. […]

γ-secretase complex = γ-secretase complex (Homo sapiens, UniProt P49768); assay: APP-C99 counter assay (GSI reporter assay); assay type: cell-based; set-up: AUC APP: scale not given here; conditions: for Hill-slope / curve fit information: bottom constrained to Emax of positive control LY-411575; for AUC APP: area under the 14-point dose-response curve, replicates averaged; for APP assay: overview in comparison to compound C, Supplemental Fig. 9
Description: To this end, we used a previously established reporter gene-based GSI assay (APP-C99) (Fig. 3A), which measures γ-secretase activity through cleavage of amyloid precursor protein (APP), another protein processed by the γ-secretase complex[24]
Plasmids for APP and luciferase are described in[24] and the renilla plasmid described above generated for this project was used to normalize firefly values. 24 h post transfection cells were seeded on compound plates and cells were cultivated for 24 h before luciferase signals were read, as described.
Two-fold concentrations of compounds were diluted in 10 µl cell culture medium and brought to one-fold by seeding 10 µl containing 4000 cells of the respective cell type on each well of a 384-well plate, as described above. Analogous to the previous assays, all plates contained one DMSO and DAPT control column with the Notch reporter cell line (#A1-11) and a DMSO only and Notch inhibitor control plate was read before the measuring the screening plates. In addition, DAPT and DMSO were spotted in a dose response fashion, and a minimum of four replicates were read. Dose-responses of compounds were recorded in triplicates for each concentration reading out the dual luciferase reporters, as described above. Dose response assays were read together in one session. To measure compound effects, the different assays dose–response curves were fitted using the log(inhibitor) vs. response – Variable slope (model: Y = Bottom + (Top–Bottom)/(1 + 10^((LogIC50-X)*HillSlope)) equation.
A DMSO plate was read before measuring luciferase activity of compound spotted plates. APP firefly luciferase reporter assays were read with a signal integration time of 0.1 s, instead of 0.5 s used for the Notch reporter to reduce signal overlap between wells. […] The area-under-the-curve (AUC) was calculated on dose–response curves using Graphpad Prism.

[1] = Homo sapiens, HEK-293T, 14p Notch assay DR, bottom constrained to Emax of positive control DAPT, read-out: approximated IC50
[2] = Homo sapiens, HEK-293T, 14p Notch assay DR, log10 value, bottom constrained to Emax of positive control DAPT, read-out: approximated LogIC50 (converted)
[3] = Homo sapiens, HEK-293T, 14-point dose-response, Fig. 4, read-out: approximated IC50, Notch reporter assay
[4] = 9p dose response, AUCs averaged when replicates available
[5] = 14p dose response, AUCs averaged when replicates available

Structure (SMILES)	Hill-slope (γ-secretase complex; 14p APP assay DR)	IC50 (Notch signalling; [1]) [µM]	IC50 (Notch signalling; [2]) [µM]	AUC APP (γ-secretase complex)	Bottom (Emax) (Notch signalling; 14p Notch assay DR)	AUC Notch (Notch signalling; replicates averaged)	also measured
COc1cc(Nc2nc(-c3cccc(O)c3)cn3ccnc23)cc(OC)c1OC [CBK066361]	-3.83e-12	12	12.6	487.2	55.6	316.0	curve fit information (γ-secretase complex; 14p APP assay DR): IC50 indeterminate
COc1ccc2[nH]c3c(c2c1)CCOC31CCN(Cc2ccccc2-c2ccccc2)CC1 [CBK040114]	0.0153	1.3	1.26	713.8	45.9	576.0	IC50 (Notch signalling; [3]): 1.4 µM
COc1cc(Nc2cncc(-c3cccc(NC(C)=O)c3)n2)cc(OC)c1OC [CBK065162]	0.0468	27	25.1	573.8	40.8	335.0	–
COc1cccc(-c2nnc(NC(=O)c3ccc4c(c3)OCCO4)o2)c1 [CBK287591]	-1.2	–	–	490.0	88.3	363.0	–
CC(C)[C@H](O)C(=O)N[C@@H](C)C(=O)N[C@@H]1C(=O)N(C)CCc2ccccc21 [LY-450139, Semagacestat, reference compound]	–	–	–	–	–	–	reporter signal in % of DMSO (Notch signalling; 10 µM): 52%; Notch assay (Notch signalling): active, potency n.d.; APP assay (γ-secretase complex): active, potency n.d.
COc1cc(Nc2nc(-c3ccc(F)c(Cl)c3)cn3ccnc23)cc(OC)c1OC [CBK037275]	-0.9	–	–	479.3	90.9	361.0	–
COc1ccc(-c2cn3ccnc3c(Nc3ccccc3)n2)cc1 [CBK066257]	-3.32e-11	–	–	515.8	91.1	403.0	curve fit information (γ-secretase complex; 14p APP assay DR): IC50 indeterminate
COc1ccccc1-c1cn2ccnc2c(Nc2cc(OC)c(OC)c(OC)c2)n1 [CBK066148]	0.0659	27	25.1	523.0	58.8	336.0	–
C[C@H](NC(=O)[C@@H](O)c1cc(F)cc(F)c1)C(=O)N[C@@H]1C(=O)N(C)c2ccccc2-c2ccccc21 [LY-411575, reference compound]	–	–	–	428.9	46.0 and 46.9	373.0	reporter signal in % of DMSO (Notch signalling; 10 µM): 46%; AUC 9p Notch reporter assay (Notch signalling; [4]): 1.91E+02; IC50 (Notch signalling; 14-point, unit inferred, replicates averaged, read-out: approxiated IC50s 14p Notch reporter assay): 0.00088 µM; Hill-slope (Notch signalling; 14p Notch assay DR, Notch inhibitor controls, no bottom constraint named): -1.3; approximated LogIC50 [M] (Notch signalling; 14p Notch assay DR, log10 value, Notch inhibitor controls, no bottom constraint named): -9.0 M; Hill-Slope 14p Notch reporter assay (Notch signalling; 14p dose response): -1.3; IC50 (Notch signalling; 14p dose response, single replicates, read-out: approximated IC50s 14p Notch reporter assay): 0.00086 µM and 0.0009 µM; AUC 14p Notch reporter assay (Notch signalling; [5]): 3.73E+02; 14p Notch reporter assay averaged IC50s (log) (Notch signalling; 14p dose response, log10 of averaged IC50): -9.1; Notch assay (Notch signalling): highest potency; also recorded: highest activity; Hill-Slope 9p APP counter assay averaged (γ-secretase complex; 9p dose response): -1.0; AUC 9p APP-counter assay (γ-secretase complex; [4]): 1.95E+02; Bottom (Emax) (γ-secretase complex; 14p APP assay DR, Emax indicated independent from assay constraints): 44.6 and 46.0; AUC. 14p APP-counter assay (γ-secretase complex; [5]): 4.29E+02; APP assay (γ-secretase complex): highest potency
CCc1c(C)sc(NC(=O)C2CCC2)c1C(=O)NCc1cccnc1 [CBK307414]	0.0127	–	–	416.6	–	311.0	IC50 (Notch signalling; [3]): 7.5 µM; IC50 (Notch signalling; Homo sapiens, HEK-293T, 14p Notch assay DR, bottom constrained to Emax of positive control RO4929097, read-out: approximated IC50): 7.4 µM; IC50 (Notch signalling; Homo sapiens, HEK-293T, 14p Notch assay DR, log10 value, bottom constrained to Emax of positive control RO4929097, read-out: approximated LogIC50 (converted)): 7.94 µM

Further lines, with some results ahead:

Hill-slope (γ-secretase complex; 14p APP assay DR)	IC50 (Notch signalling; [1]) [µM]	IC50 (Notch signalling; [2]) [µM]	AUC APP (γ-secretase complex)	Structure (SMILES)	Bottom (Emax) (Notch signalling; 14p Notch assay DR)	AUC Notch (Notch signalling; replicates averaged)	also measured
-0.0118	–	–	–	CC(=O)N1CCc2sccc2C1c1ccccc1NCc1ccoc1 (centres unmarked) [CBK286432]	–	–	activity at 10 µM (Notch signalling; Homo sapiens, HEK-293T, 10 µM, primary screen, 24 h, unit from Fig. 2 legend, read-out: Primary screen at 10 µM (Notch reporter signal)): 37.6%; activity at 10 µM (Notch signalling; Homo sapiens, HEK-293T, 10 µM, three-dose confirmation screen, unit from Fig. 2 legend, read-out: Hit confirmation at 10 µM (Notch reporter signal)): 57.2%; activity at 10 µM (Notch signalling; Homo sapiens, HEK-293T, 10µM, 3-point DR confirmation screen, Notch reporter assay, read-out: inhibitor ratio in % of DMSO in 3 point DR): 57.2%; activity at 10 µM (Notch signalling; Homo sapiens, HEK-293T, 10 µM, sheet conf vs counter 10 µM, same values as 3-point DR confirmation screen, read-out: Confirmation screen): 57.2%; activity at 25 µM (Notch signalling; Homo sapiens, HEK-293T, 25µM, 3-point DR confirmation screen, Notch reporter assay, read-out: inhibitor ratio in % of DMSO in 3 point DR): 45.5%; activity at 25 µM (Notch signalling; Homo sapiens, HEK-293T, 25 µM, Notch reporter 3-point dose-confirmation assay, sheet "conf vs counter 25 µM", read-out: Confirmation screen): 45.5%; activity (Notch signalling; Homo sapiens, HEK-293T, 1,25µM, 3-point DR confirmation screen, Notch reporter assay, read-out: inhibitor ratio in % of DMSO in 3 point DR): 88.7%; remaining activity at 10 µM (γ-secretase complex; 24 h, 10µM, APP-C99 counter assay, read-out: 3p-DR in % of DMSO counter): 152%; remaining activity at 25 µM (γ-secretase complex; 24 h, 25µM, APP-C99 counter assay, read-out: 3p-DR in % of DMSO counter): 184%; remaining activity at […] (γ-secretase complex; 24 h, 1,25µM, APP-C99 counter assay, read-out: 3p-DR in % of DMSO counter): 147%
-0.00462	> 40	> 40	501.6	COc1cc(Nc2cncc(-c3cccc(N(C)C)c3)n2)cc(OC)c1OC [CBK065722]	82.6	354.0	–
0.0551	> 40	> 40	517.0	COc1cccc(Nc2nc(-c3cccnc3)cn3ccnc23)c1 [CBK103068]	69.8	335.0	–
-0.00462	–	–	411.0	NC(=O)c1c(NC(=O)NC2CCCCC2)sc2c1CCCC2 [CBK431895]	87.8	341.0	IC50 (Notch signalling; [3]): 33.5 µM
–	–	–	642.7	CC(=O)N1CCc2sccc2C1c1ccccc1NC(=O)c1ccco1 (centres unmarked) [CBK286436]	99.7	629.0	curve fit information (γ-secretase complex; 14p APP assay DR): IC50 indeterminate
